Data taken from patent publication US10683278B2 (JINAN UNIVERSITY, priority 2015, dated 2020).

Tested on: 4T1 cells
Assay: In vivo metastasis of 4T1 xenografts
Conditions: BALB/c mice, 4T1 subcutaneous, oral 30 and 90 mg/kg per day, 21 days
Protocol: BALB/c mice were selected and 4T1 cells (0.5×10^6/mouse) were inoculated subcutaneously on their right sides. Twenty-four days after inoculation, the mice were randomly divided into treatment and control groups (10 in each group). The mice in each group were orally administered for 21 days, and the drug dose in the treatment group was 30 mg/kg and 90 mg/kg of compound 2-lin per day, respectively. The mice were measured for body weight and tumor volume every two days. After the mice reached the end of administration, the liver tissues of mice were excised and collected, fixed with 10% formaldehyde solution, embedded in paraffin, sectioned, and stained with eosin. Microscopic examination of micrometastases in at least three fields of view was performed and the number of liver micrometastases was calculated.
The tumor volume is calculated by the formula of TV=W^2(L/2), wherein L is the length and W is the width.

CCc1ccc2c(c1)c(=O)c(C(=O)Nc1ccc(Oc3ncnc4cc(OC)c(OC)cc34)c(F)c1)c(C)n2C [TL4800191, N-(4-(6,7-dimethoxyquinazolin-4-yloxy)-3-fluorophenyl)-6-ethyl-1,2-dimethyl-4-oxo-1,4-dihydroquinoline-3-carboxamide]
growth of in situ tumor: no obvious inhibitory effect | number and size of liver metastasis: inhibit the number and size of liver metastasis in a dose-dependent manner
